System: Meloidogyne incognita
Assay: Meloidogyne incognita test: gall rating on cucumber plants in pots after soil application
Assay type: in vivo
Parameters: key: 0: no galls; 1: very few small galls; 2: numerous small galls; 3: numerous small galls of which some are grown together; 4: numerous small and some big galls; 25% of roots severely galled; 6: 50% of roots severely galled; 75% of roots severely galled; 8: no healthy roots but plant is still green; 9: roots rotting and plant dying; 10: plant and roots dead
Conditions: 1000 ppm applied to soil inoculated with 5000 eggs & J2s; cucumber seedlings; rated 30 days after application; 0-10 scale (Zeck 1971); untreated check up to 8
Description: Meloidogyne incognita Test:
The trial pots were filled with soil containing a mixture of sand:soil:cocopeat in a ratio of 1:1:1. To the soil of each pot 5 mL of a nematode suspension (Meloidogyne incognita, mix of 5000 eggs & J2s) was added. One hour later the respective test compound at the stated concentration was applied to each pot. 10 days old cucumber seedlings were transplanted into the pots one day after the application. The cucumber plants were allowed to grow at a temperature of 27° C. under greenhouse conditions. The evaluation of the gall rating was recorded 30 days after the application. The plants were carefully uprooted and the roots were thoroughly washed. The gall rating was done on a 0-10 scale as described by Zeck (1971) and shown below: • 0=no galls • 1=very few small galls • 2=numerous small galls • 3=numerous small galls of which some are grown together • 4=numerous small and some big galls • 5=25% of roots severely galled • 6=50% of roots severely galled • 7=75% of roots severely galled • 8=no healthy roots but plant is still green • 9=roots rotting and plant dying • 10=plant and roots dead

SMILES	gall rating scale
Cc1ccc(C)c(S(=O)(=O)NC(=O)c2nnn(-c3ccc(OC(F)(F)F)cc3Cl)c2C)c1 [Compound 217]	4
Cc1c(C(=O)NS(=O)(=O)c2c(F)cc(F)cc2F)nnn1-c1cc(Cl)cc(C(F)(F)F)c1 [Compound 97]	4
Cc1c(C(=O)NS(=O)(=O)c2cc(C(F)(F)F)ccc2Cl)nnn1-c1ccc(OC(F)F)cc1Cl [Compound 665]	4
Cc1c(Cl)cccc1S(=O)(=O)NC(=O)c1nnn(-c2ccc(OC(F)(F)F)cc2Cl)c1C(F)(F)F [Compound 596, N-((3-chloro-2-methylphenyl)sulfonyl)-1-(2-chloro-4-(trifluoromethoxy)phenyl)-5-(trifluoromethyl)-1H-1,2,3-triazole-4-carboxamide]	4
O=C(NS(=O)(=O)c1ccccc1C(F)(F)F)c1nnn(-c2ccc(OC(F)(F)F)cc2Cl)c1C1CC1 [Compound 228]	4
O=C(NS(=O)(=O)c1cc(C(F)(F)F)ccc1Cl)c1nnn(-c2ccc(Cl)cc2F)c1C(F)(F)F [Compound 631]	4
N#Cc1ccc(-n2nnc(C(=O)NS(=O)(=O)c3ccccc3Cl)c2C(F)(F)F)c(F)c1 [Compound 563, N-((2-chlorophenyl)sulfonyl)-1-(4-cyano-2-fluorophenyl)-5-(trifluoromethyl)-1H-1,2,3-triazole-4-carboxamide]	4
Cc1c(C(=O)NS(=O)(=O)c2cc(Cl)c(F)cc2F)nnn1-c1ccc(F)cc1Cl [Compound 250]	4
Cc1c(C(=O)NS(=O)(=O)c2ccccc2F)nnn1-c1ccc(OC(F)(F)F)cc1Cl [Compound 143]	4
COc1ccc(Cl)c(S(=O)(=O)NC(=O)c2nnn(-c3ccc(C#N)cc3F)c2C(F)(F)F)c1 [Compound 538, N-((2-chloro-5-methoxyphenyl)sulfonyl)-1-(4-cyano-2-fluorophenyl)-5-(trifluoromethyl)-1H-1,2,3-triazole-4-carboxamide]	4
COc1ccc(Cl)cc1S(=O)(=O)NC(=O)c1nnn(-c2ccc(Cl)cc2Cl)c1C(F)(F)F [Compound 598]	4
O=C(NS(=O)(=O)c1cc(C(F)(F)F)ccc1Cl)c1nnn(-c2ccc(F)cc2F)c1C(F)(F)F [Compound 774]	4
Cc1c(C(=O)NS(=O)(=O)c2ccccc2C(F)(F)F)nnn1-c1ccc(F)cc1Cl [Compound 245]	4
Cc1ccc(C)c(S(=O)(=O)NC(=O)c2nnn(-c3ccc(C#N)cc3F)c2C(F)(F)F)c1 [Compound 536, 1-(4-cyano-2-fluorophenyl)-N-((2,5-dimethylphenyl)sulfonyl)-5-(trifluoromethyl)-1H-1,2,3-triazole-4-carboxamide]	4
Cc1c(C(=O)NS(=O)(=O)c2cc(F)cc(F)c2)nnn1-c1ccc(OC(F)F)cc1Cl [Compound 673]	4
COc1ccc(Cl)c(S(=O)(=O)NC(=O)c2nnn(-c3cc(C(F)(F)F)cc(C(F)(F)F)c3)c2C)c1 [Compound 108]	4
Cc1c(Cl)cccc1S(=O)(=O)NC(=O)c1nnn(-c2ccc(C#N)cc2Cl)c1C [Compound 513]	4
COc1ccc(C)cc1S(=O)(=O)NC(=O)c1nnn(-c2ccc(Cl)cc2Cl)c1C(F)(F)F [Compound 599]	4
Cc1c(C(=O)NS(=O)(=O)c2cc(Cl)ccc2Cl)nnn1-c1ccc(OC(F)(F)F)cc1Cl [Compound 134, 1-(2-chloro-4-(trifluoromethoxy)phenyl)-N-((2,5-dichlorophenyl)sulfonyl)-5-methyl-1H-1,2,3-triazole-4-carboxamide]	4
COc1ccc(Cl)c(S(=O)(=O)NC(=O)c2nnn(-c3ccc(OC(F)(F)F)cc3Cl)c2C2CC2)c1 [Compound 230, 1-(2-chloro-4-(trifluoromethoxy)phenyl)-N-((2-chloro-5-methoxyphenyl)sulfonyl)-5-cyclopropyl-1H-1,2,3-triazole-4-carboxamide]	4
Cc1c(C(=O)NS(=O)(=O)c2cc(C(F)(F)F)ccc2F)nnn1-c1ccc(Cl)cc1Cl [Compound 240]	4
CCc1c(C(=O)NS(=O)(=O)c2ccccc2F)nnn1-c1ccc(F)cc1Cl [Compound 378, 1-(2-chloro-4-fluorophenyl)-5-ethyl-N-((2-fluorophenyl)sulfonyl)-1H-1,2,3-triazole-4-carboxamide]	4
O=C(NS(=O)(=O)c1cc(C(F)(F)F)ccc1Cl)c1nnn(-c2ccc(OC(F)(F)F)cc2Cl)c1C1CC1 [Compound 227, 1-(2-chloro-4-(trifluoromethoxy)phenyl)-N-((2-chloro-5-(trifluoromethyl)phenyl)sulfonyl)-5-cyclopropyl-1H-1,2,3-triazole-4-carboxamide]	4

SMILES	gall rating scale
N#Cc1ccc(-n2nnc(C(=O)NS(=O)(=O)c3ccccc3C(F)(F)F)c2C(F)(F)F)c(Cl)c1 [Compound 394, 1-(2-chloro-4-cyanophenyl)-5-(trifluoromethyl)-N-((2-(trifluoromethyl)phenyl)sulfonyl)-1H-1,2,3-triazole-4-carboxamide]	4
CCc1c(C(=O)NS(=O)(=O)c2ccccc2F)nnn1-c1ccc(OC(F)(F)F)cc1Cl [Compound 339, 1-(2-chloro-4-(trifluoromethoxy)phenyl)-5-ethyl-N-((2-fluorophenyl)sulfonyl)-1H-1,2,3-triazole-4-carboxamide]	4
Cc1c(C(=O)NS(=O)(=O)c2ccc(F)cc2F)nnn1-c1cc(Cl)c(Cl)cc1Cl [Compound 683]	4
N#Cc1ccc(-n2nnc(C(=O)NS(=O)(=O)c3ccccc3OC(F)(F)F)c2C(F)(F)F)c(Cl)c1 [Compound 395, 1-(2-chloro-4-cyanophenyl)-N-((2-(trifluoromethoxy)phenyl)sulfonyl)-5-(trifluoromethyl)-1H-1,2,3-triazole-4-carboxamide]	4
Cc1c(C(=O)NS(=O)(=O)c2cc(Cl)ccc2F)nnn1-c1ccc(OC(F)(F)F)cc1Cl [Compound 168, N-((5-chloro-2-fluorophenyl)sulfonyl)-1-(2-chloro-4-(trifluoromethoxy)phenyl)-5-methyl-1H-1,2,3-triazole-4-carboxamide]	4
O=C(NS(=O)(=O)c1cc(C(F)(F)F)ccc1Cl)c1nnn(-c2ccc(F)cc2Cl)c1C(F)(F)F [Compound 364, 1-(2-chloro-4-fluorophenyl)-N-((2-chloro-5-(trifluoromethyl)phenyl)sulfonyl)-5-(trifluoromethyl)-1H-1,2,3-triazole-4-carboxamide]	4
Cc1c(C(=O)NS(=O)(=O)c2cc(F)ccc2F)nnn1-c1ccc(C#N)cc1Cl [Compound 269]	4
Cc1c(C(=O)NS(=O)(=O)c2cc(Cl)c(Cl)cc2Cl)nnn1-c1ccc(OC(F)F)cc1Cl [Compound 676]	4
Cc1ccccc1S(=O)(=O)NC(=O)c1nnn(-c2ccc(F)cc2F)c1C(F)(F)F [Compound 776]	4
CCc1c(C(=O)NS(=O)(=O)c2cc(OC)ccc2Cl)nnn1-c1ccc(OC(F)(F)F)cc1Cl [Compound 336, 1-(2-chloro-4-(trifluoromethoxy)phenyl)-N-((2-chloro-5-methoxyphenyl)sulfonyl)-5-ethyl-1H-1,2,3-triazole-4-carboxamide]	4
Cc1c(C(=O)NS(=O)(=O)c2ccccc2F)nnn1-c1ccc(C#N)cc1F [Compound 415]	4
Cc1ccc(F)cc1S(=O)(=O)NC(=O)c1nnn(-c2ccc(OC(F)(F)F)cc2Cl)c1C [Compound 588]	4
COc1ccc(Cl)c(S(=O)(=O)NC(=O)c2nnn(-c3ccc(C#N)cc3Cl)c2C)c1 [Compound 260]	4
O=C(NS(=O)(=O)c1ccc(F)cc1F)c1nnn(-c2ccc(Cl)cc2Cl)c1C(F)(F)F [Compound 218]	4
Cc1ccccc1S(=O)(=O)NC(=O)c1nnn(-c2ccc(C#N)cc2Cl)c1C [Compound 459]	4
CCc1c(C(=O)NS(=O)(=O)c2cc(C(F)(F)F)ccc2Cl)nnn1-c1ccc(OC(F)(F)F)cc1Cl [Compound 311, 1-(2-chloro-4-(trifluoromethoxy)phenyl)-N-((2-chloro-5-(trifluoromethyl)phenyl)sulfonyl)-5-ethyl-1H-1,2,3-triazole-4-carboxamide]	4
COc1ccc(Cl)c(S(=O)(=O)NC(=O)c2nnn(-c3ccc(OC(F)(F)F)cc3Cl)c2C)c1 [Compound 133]	4
O=C(NS(=O)(=O)c1ccccc1C(F)(F)F)c1nnn(-c2ccc(Cl)cc2F)c1C(F)(F)F [Compound 640]	4
Cc1c(C(=O)NS(=O)(=O)c2ccccc2C(F)(F)F)nnn1-c1ccc(Cl)cc1F [Compound 443]	4
COc1ccc(C)cc1S(=O)(=O)NC(=O)c1nnn(-c2ccc(OC(F)(F)F)cc2Cl)c1C(F)(F)F [Compound 590]	4
Cc1c(C(=O)NS(=O)(=O)c2cc(C(F)(F)F)ccc2Cl)nnn1-c1ccc(C#N)cc1Cl [Compound 315]	4
Cc1c(C(=O)NS(=O)(=O)c2cc(C(F)(F)F)ccc2Cl)nnn1-c1ccc(OC(F)(F)F)cc1Cl [Compound 135]	4

Source: patent US20250129031A1, “1,2,3-TRIAZOLE CARBONYL SULFONYLAMIDE COMPOUNDS AND USE THEREOF” (PI INDUSTRIES LTD., priority 2022, published 2025)
